Results reported in patent publication US20050020544A1, “Bicyclic CB2 cannabinoid receptor ligands” (priority 2002, published 2005).
pIC50: −log10 of the molar value.

Legend:
human CB2 receptor = human CB2 receptor (Homo sapiens, UniProt P34972); assay: Adenylylcyclase assay: forskolin-activated cAMP in CB2 transfected HEK-293 cells; assay type: cell-based; settings: HEK293, read-out: % inhibition at 1 μM; CB2 receptor transfected HEK-293, 1 μM forskolin
Method: (§1) Cannabinoids and derivatives bind to G-protein-coupled CB1 and CB2 receptors and exert their activity via the inhibition of adenylylcyclase activity. An adenylylcyclase assay forms a basis for the functional analysis of the compounds by determining their capacity to inhibit or promote forskolin-activated cAMP production. The assay is carried out according to Chin et al. (Chin, C. N. et al., J. Neurochem. 70: 366-73, 1998). Briefly, HEK-293 human kidney cells (ATCC#CRL-1573) stably transfected with either the human CB1 or CB2 receptor (cDNA) were grown in DMEM supplemented with 10% fetal calf serum, 1% Penicillin-Streptomycin and 2 mM L-glutamine. Cells were seeded in 24 wells plate at 5×10^4 cells/well and incubated for 48 hours. Medium was then removed and the adherent cells were washed with PBS. Two hundred μl of serum free medium supplemented with 0.2 mM Ro 20-1724, 0.25% BSA, and 20 mM HEPES was then added to each well. The cells were then activated with 1 μM forskolin in presence of the bicyclic test compounds in concentrations ranging from 10 pM up to 1 μM. The activated cells were then incubated at 37° C. for 20 minutes and the reaction terminated with 1.2 M HCl to a final concentration of 0.1 M. Cells were lyzed by freeze and thaw and the lysate was neutralized with 2 M HEPES, pH 7.5. cAMP was measured in 50 μl aliquots using the [^3H]-cAMP assay system (Amersham).
(§2) This experiment was first performed on CB2 receptor transfected cells.

human CB1 receptor [1] = target: T1, human CB1 receptor (Homo sapiens, UniProt P21554); assay: biochemical; assay type: binding; settings: CB1 IC50
T1 construct: purchased Perkin Elmer/NEN; host or cells: HEK-293 cells, stably transfected (membranes)
T1 sequence (P21554 whole entry): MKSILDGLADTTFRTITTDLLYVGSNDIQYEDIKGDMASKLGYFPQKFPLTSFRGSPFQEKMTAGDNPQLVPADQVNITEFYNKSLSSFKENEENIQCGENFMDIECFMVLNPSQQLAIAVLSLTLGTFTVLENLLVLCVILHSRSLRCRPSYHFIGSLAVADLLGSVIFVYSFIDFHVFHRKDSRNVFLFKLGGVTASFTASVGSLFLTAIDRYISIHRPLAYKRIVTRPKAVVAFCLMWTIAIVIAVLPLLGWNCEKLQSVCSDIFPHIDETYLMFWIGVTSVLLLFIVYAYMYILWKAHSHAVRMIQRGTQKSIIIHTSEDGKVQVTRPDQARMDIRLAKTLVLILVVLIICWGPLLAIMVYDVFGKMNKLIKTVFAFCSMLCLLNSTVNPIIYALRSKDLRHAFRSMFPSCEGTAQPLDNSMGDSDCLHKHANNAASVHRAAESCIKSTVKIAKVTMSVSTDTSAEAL
In short: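 Displacement of [3H]CP55940 from membranes of HEK-293 cells stably expressing human CB1, in 50 mM Tris-HCl, 2.5 mM EDTA, 5 mM MgCl2, 1 mg/ml BSA, pH 7.4, 0.1% DMSO; 1.5 h at 30° C, then filtration.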

human CB1 receptor [2] = target: T1, human CB1 receptor; assay: Adenylylcyclase assay: forskolin-activated cAMP in CB1 transfected HEK-293 cells; assay type: cell-based
Method: as §1, §2

ICR male mice [3] = assay: Tail flick model for acute peripheral pain, i.p.; assay type: in vivo, mouse; settings: 5 mg/kg i.p.
Method: (§3) ICR male mice (20-30 g average body weight, Harlan, Israel) were injected i.p. at the volume dose of 5 ml/kg. Each treatment group contained at least 6 animals. Morphine HCl was used as positive control at the final dose of 5 mg/kg. Its vehicle, saline, was also included as control. The test compounds were dissolved in CREMOPHOR EL®:ethanol and diluted 1:20 in saline prior to injection, this second type of vehicle was also included as negative control. The final dose injected varied from 0.1 to 10 mg/kg. At predetermined time points after treatment injection, the animals were placed in the tail flick system (Socrel, model DS 20). Animals were gently held while their tails were located above the photoelectric cell. The tails were then illuminated (21V) at 2 cm from the distal tip and the latency time, measured in seconds, was recorded in duplicates. At the end of the study, the animals were euthanized by i.p. injection of 100 mg/kg sodium pentobarbitone.
Two parameters were used to analyze the results, the latency time and the % of animals showing analgesia. […] The results in both cases are expressed as mean±SE. The differences between the latency times or the % of animals showing analgesia among various treatment groups was analyzed by analysis of variance (ANOVA) followed by post-hoc Tukey's test (for latency) or Fisher's exact test (for % animals). A value of p<0.05 is considered to be statistically significant.

male Sprague-Dawley rats = assay: Chronic constriction nerve injury, neuropathic pain (Von Frey filaments); assay type: in vivo, rat; settings: 4 mg/kg i.p., 15 minutes
Text: The aim of this study was to assess the potential analgesic effects of the novel bicyclic CB2 binding compounds in an animal model of neuropathic pain. A peripheral monopathy was induced in the right hind limb of rats following a chronic constriction of the sciatic nerve (Bennet, G. J. & Xie, Y-K., Pain 33: 87-107, 1988). The development of mechanical allodyna was monitored using an established behavioral test (Von Frey filaments).
Pre-surgery baseline values were ascertained as the mean of 2 pre-surgery values. Once the baseline values had been established, the animals were surgically prepared by constricting the right sciatic nerve with 4 chromic cat gut loose ligatures.
The design was randomized, performed in a masked fashion as to whether drug or vehicle is being given. The animals, male Sprague-Dawley rats (average body weight 240-290 g), were allowed to acclimatize to the behavioral testing equipment prior to testing. On the testing day, the animals, at least six per treatment group, were given i.p. a single dose of one of the test compounds in a volume of 2.5 ml/kg. Fifteen minutes later, a series of Von Frey filaments (pre-calibrated prior to testing) were applied to the plantar surface of the hind paw, from below. The filaments were applied in ascending order starting with the weakest force and the withdrawal threshold for both the ipsilateral and contralateral hind paws was evaluated. Each filament was indented on the mid-plantar surface of the foot to the point where it just starts to bend; this is repeated approximately 8-10 times per filament at a frequency of approximately 1 Hz. The withdrawal threshold is defined as being the lowest force of two or more consecutive Von Frey's filaments to elicit a reflex withdrawal response (i.e. a brief paw flick) and is measured in grams.
The results are expressed as % increase in the threshold of response to Von Frey's filaments in the test compound treated group versus the vehicle treated animals and per definition the vehicle treated group yields a null baseline value. The black column represents the morphine treated animals (4 mg/kg), the gray and the dotted column bars represent two doses of compound A (0.5 and 1 mg/kg respectively).

ICR male mice [4] = assay: Development of tolerance on repeated administration, tail flick model; settings: 5 mg/kg twice daily i.p.
Method: as §3
Tolerance was assessed in the tail flick model above described. Briefly, the test compounds were administered twice daily i.p. for up to 10 days to groups of 10 animals each. The noxious pain threshold was measured as previously described in example 13 thirty minutes after the first drug administration on days 1, 4, 8 and 10. Results are expressed as mean latency time till the animal flicked its tail±SE. The differences between the latency times or the % of animals showing analgesia among various treatment groups was analyzed by analysis of variance (ANOVA) followed by post-hoc Tukey's test (for latency) or Fisher's exact test (for % animals). A value of p<0.05 is considered to be statistically significant.

Male Sprague Dawley rats = assay: Inflammatory pain: carrageenan paw edema in rats, thermal and mechanical stimuli; assay type: in vivo, rat; settings: 5 mg/kg, three hours
Method: Male Sprague Dawley rats (200 g average body weight, Harlan, Israel) are transiently sedated by placement on dry ice for the duration of the injections. […] Before induction of inflammatory pain and three hours after injection, the animals reactions to pain stimuli were tested in two systems. The first stimulus was thermal and assessed by the Plantar Test according to Hargreaves, using Ugo Basile Model 7370. The scale was set to an intensity of 50 arbitrary units. The latency time till the animal lift a paw as a reaction to the thermal stimulus was recorded for both the inflamed and non-inflamed hind paws. The second stimulus was mechanical (tactile) and assessed using a Dynamic Plantar Sesthesiomether (Ugo Basile Model 73400-002).
The results are measured as the differences between the two hind paws at time 0 and 3 hours both as ALT, for the latency time in the thermal part of the study, and as ΔForce, for the mechanical part of the study.

Sequence of human CB2 receptor (P34972 whole entry): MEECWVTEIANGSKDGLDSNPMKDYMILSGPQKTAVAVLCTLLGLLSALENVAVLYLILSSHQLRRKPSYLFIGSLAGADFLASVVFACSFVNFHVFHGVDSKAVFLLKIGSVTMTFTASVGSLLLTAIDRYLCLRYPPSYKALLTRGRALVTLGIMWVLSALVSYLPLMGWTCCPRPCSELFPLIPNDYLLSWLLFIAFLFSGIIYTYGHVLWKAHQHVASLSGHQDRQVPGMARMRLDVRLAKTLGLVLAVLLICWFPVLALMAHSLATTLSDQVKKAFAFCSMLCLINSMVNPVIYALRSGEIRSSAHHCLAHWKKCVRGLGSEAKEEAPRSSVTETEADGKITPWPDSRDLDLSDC

SMILES	inhibition at 1 µM (human CB2 receptor) [%]	pIC50 (human CB1 receptor [1])	pIC50 (human CB1 receptor [2])	inhibition at 1 µM (human CB1 receptor [2]; HEK293, CB1 transfected HEK-293, 1 μM forskolin, read-out: maximal inhibition at 1 μM) [%]	latency time (ICR male mice [3]; 30 minutes) [s]	% animals showing analgesia (ICR male mice [3]; 90 minutes)	latency time (ICR male mice [3]; 90 minutes) [s]	latency time (ICR male mice [3]; five and a half hour) [s]	% animals showing increased analgesia (ICR male mice [3]; five and an half hours) [%]	% animals showing increased analgesia (ICR male mice [3]; half-an hour) [%]	latency time (ICR male mice [3]; two and a half hour) [s]	increase in pain threshold (Von Frey) versus vehicle, ipsilateral hind paw (male Sprague-Dawley rats) [%]	% of animals showing increased analgesia (ICR male mice [4]; day 10) [%]	latency time (ICR male mice [4]; day 10) [s]	% of animals showing increased analgesia (ICR male mice [4]; day one) [%]	latency time (ICR male mice [4]; day one) [s]	ΔForce (tactile stimulus) (Male Sprague Dawley rats) [grams]	ΔLT (thermal stimulus) (Male Sprague Dawley rats) [s]
CCCCCCC(C)(C)c1cc(O)c2c(c1)OC(C)(C)[C@@H]1CC=C(CO)C[C@@H]21 [HU-210, 7-hydroxy-Δ^6-tetrahydrocannabinol-1,1-dimethyl-heptyl, reference compound]	50	9.41	9.46	73	–	–	–	–	–	–	–	–	–	–	–	–	–	–
CN1CC[C@]23c4c5ccc(O)c4O[C@H]2[C@@H](O)C=C[C@H]3[C@H]1C5 [Morphine, reference compound]	–	–	–	–	7.5	about 40%	3.9	3.6	17	88	3.1	91	30	5.8	80	7.5	2.7	0
